The values that follow come from US20140315889A1, “HYDROXAMATE DERIVATIVES FOR HDAC INHIBITOR, AND THE PHARMACEUTICAL COMPOSITION COMPRISING THEREOF” (CHONG KUN DANG PHARMACEUTICAL CORP., priority 2011, published 2014).

One assay deals with T1, Human recombinant HDAC1 (Homo sapiens, UniProt Q13547).
T1 construct: purchased Enzo Life Science Co. (named for the kit; assigned to the enzyme from the BML- catalogue prefix) BML-SE456
In words: HDAC enzyme activity test, HDAC1. The class given is biochemical. To be noted: Table 12; read-out: Inhibition ability (IC50) HDAC1. Here is the method:
(§1) Then, 0.3 μg of enzyme and 10 μM of substrate per well were added, reacted at 30° C. for 60 minutes. Thereto, Fluor de Lys® Developer II (BML-KI176) was added and reacted for 30 minutes. […] From the data, the respective IC50 were calculated by GraphPad Prism 4.0 program.

The target of a further assay is T2, human recombinant HDAC6 (Homo sapiens, UniProt Q9UBN7).
T2 construct: purchased Calibiochem Co. (so in the source) 382180
T2 sequence (Q9UBN7 1-1215): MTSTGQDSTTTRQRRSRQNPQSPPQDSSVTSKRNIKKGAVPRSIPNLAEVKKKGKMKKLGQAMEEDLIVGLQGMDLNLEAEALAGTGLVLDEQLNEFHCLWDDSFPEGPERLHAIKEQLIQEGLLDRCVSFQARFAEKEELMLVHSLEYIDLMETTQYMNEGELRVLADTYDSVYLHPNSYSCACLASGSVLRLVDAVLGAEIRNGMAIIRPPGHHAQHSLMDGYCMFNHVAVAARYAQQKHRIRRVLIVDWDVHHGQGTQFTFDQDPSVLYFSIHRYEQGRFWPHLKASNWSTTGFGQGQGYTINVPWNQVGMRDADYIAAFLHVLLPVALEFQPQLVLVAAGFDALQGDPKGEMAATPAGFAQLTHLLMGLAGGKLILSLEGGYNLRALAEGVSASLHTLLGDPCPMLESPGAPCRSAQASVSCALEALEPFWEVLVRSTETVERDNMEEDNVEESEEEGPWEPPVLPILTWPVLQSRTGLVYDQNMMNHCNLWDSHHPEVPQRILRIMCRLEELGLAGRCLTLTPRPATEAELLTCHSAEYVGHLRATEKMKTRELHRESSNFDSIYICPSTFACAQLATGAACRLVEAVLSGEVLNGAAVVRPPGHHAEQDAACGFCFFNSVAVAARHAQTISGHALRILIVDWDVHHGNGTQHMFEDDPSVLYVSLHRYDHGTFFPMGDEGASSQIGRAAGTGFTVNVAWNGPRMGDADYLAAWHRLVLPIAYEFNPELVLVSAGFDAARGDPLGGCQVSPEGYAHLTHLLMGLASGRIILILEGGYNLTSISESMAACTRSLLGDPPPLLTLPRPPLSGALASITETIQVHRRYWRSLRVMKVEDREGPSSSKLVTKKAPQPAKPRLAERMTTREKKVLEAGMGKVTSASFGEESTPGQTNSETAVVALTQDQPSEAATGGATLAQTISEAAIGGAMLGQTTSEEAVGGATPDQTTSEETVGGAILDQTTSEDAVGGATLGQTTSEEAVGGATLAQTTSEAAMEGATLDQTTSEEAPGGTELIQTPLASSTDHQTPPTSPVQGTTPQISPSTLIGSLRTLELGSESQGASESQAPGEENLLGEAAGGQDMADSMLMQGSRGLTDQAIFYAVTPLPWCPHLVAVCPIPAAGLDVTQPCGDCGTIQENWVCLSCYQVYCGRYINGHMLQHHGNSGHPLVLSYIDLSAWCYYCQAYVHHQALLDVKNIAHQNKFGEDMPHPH
Kind of assay: HDAC enzyme activity test, HDAC6. The class given is biochemical. The note with it: Table 12; for Selectivity for HDAC6, HD1/HD6: ratio HDAC1 IC50 / HDAC6 IC50; for pIC50: read-out: Inhibition ability (IC50) HDAC6. The protocol:
as §1

pIC50: −log10 of the molar value.

T1 sequence (Q13547 whole entry): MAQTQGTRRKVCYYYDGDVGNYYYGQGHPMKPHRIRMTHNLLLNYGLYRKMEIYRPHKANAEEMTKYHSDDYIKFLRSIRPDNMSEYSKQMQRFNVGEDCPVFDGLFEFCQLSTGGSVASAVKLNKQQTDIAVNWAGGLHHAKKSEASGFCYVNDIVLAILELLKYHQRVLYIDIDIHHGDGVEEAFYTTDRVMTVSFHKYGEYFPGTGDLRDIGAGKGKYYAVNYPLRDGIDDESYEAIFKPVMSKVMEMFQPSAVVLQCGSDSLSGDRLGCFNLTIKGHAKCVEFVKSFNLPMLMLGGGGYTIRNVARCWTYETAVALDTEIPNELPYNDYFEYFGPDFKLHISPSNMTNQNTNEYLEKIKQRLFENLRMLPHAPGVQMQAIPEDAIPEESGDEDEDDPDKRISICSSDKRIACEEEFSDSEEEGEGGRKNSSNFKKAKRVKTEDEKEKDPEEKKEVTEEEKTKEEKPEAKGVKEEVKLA

Turning to `CC1(C)CC(=O)c2c(n(CCCCCC(=O)NO)c3ccccc23)C1` [Compound 18, 6-(2,2-dimethyl-4-oxo-1,2,3,4-tetrahydrocarbazol-9-yl)-N-hydroxyhexanamide], the negative logarithm of the IC50 (pIC50) (usually −log10 of the IC50, conventionally taken in molar units) on Human recombinant HDAC1 was 5.88. At human recombinant HDAC6, the “Selectivity for HDAC6, HD1/HD6” value worked out at 18.5 and the pIC50 is 7.15.

On to `CC1(C)CC(=O)c2c(n(CCCCCCC(=O)NO)c3ccccc23)C1` [Compound 20, 7-(2,2-dimethyl-4-oxo-1,2,3,4-tetrahydrocarbazol-9-yl)-N-hydroxyheptanamide], for which the negative-log IC50 (pIC50) at Human recombinant HDAC1 was 6.90. In addition, at human recombinant HDAC6, the “Selectivity for HDAC6, HD1/HD6” value is on record as 16.8 and the pIC50 is 8.13.

`CC1(C)CC(=O)c2c(n(CCCCCC(=O)NO)c3ccc(Br)cc23)C1` [Compound 40, 6-(6-bromo-2,2-dimethyl-4-oxo-1,2,3,4-tetrahydrocarbazol-9-yl)-N-hydroxyhexanamide]: the negative-log IC50 (pIC50) on Human recombinant HDAC1 was 5.05. In addition, at human recombinant HDAC6, the “Selectivity for HDAC6, HD1/HD6” value is listed as 75.5 and the pIC50 is 6.93.

As to `CC1(C)CC(=O)c2c(n(CCCCCC(=O)NO)c3cc(Br)ccc23)C1` [Compound 41, 6-(7-bromo-2,2-dimethyl-4-oxo-1,2,3,4-tetrahydrocarbazol-9-yl)-N-hydroxyhexanamide], the pIC50 on Human recombinant HDAC1 was 7.01. Besides, at human recombinant HDAC6, the “Selectivity for HDAC6, HD1/HD6” value is reported as 50.7 and the pIC50 is 8.71.

Regarding `CC1(C)CC(=O)c2c(n(Cc3ccc(C(=O)NO)cc3)c3ccc(Br)cc23)C1` [Compound 45, 4-((6-bromo-2,2-dimethyl-4-oxo-1,2,3,4-tetrahydrocarbazol-9-yl)methyl)-N-hydroxybenzamide], the negative logarithm of the IC50 (pIC50) at Human recombinant HDAC1 was 5.26. Further, on human recombinant HDAC6, the “Selectivity for HDAC6, HD1/HD6” value is 42.1 and the pIC50 was 6.89.

As for `CC1(C)CC(=O)c2c(n(CCCCCC(=O)NO)c3c(Br)cccc23)C1` [Compound 46, 6-(1-bromo-7,7-dimethyl-5-oxo-5,6,7,8-tetrahydrocarbazol-9-yl)-N-hydroxyhexanamide], the negative-log IC50 (pIC50) on Human recombinant HDAC1 is 5.68. Also, on human recombinant HDAC6, the “Selectivity for HDAC6, HD1/HD6” value is listed as 8.2 and the negative logarithm of the IC50 (pIC50) was 6.60.

In the case of `CC1(C)CC(=O)c2c(n(CCCCCC(=O)NO)c3c(Cl)cc(Cl)cc23)C1` [Compound 47, 6-(1,3-dichloro-7,7-dimethyl-5-oxo-5,6,7,8-tetrahydrocarbazol-9-yl)-N-hydroxyhexanamide], the negative-log IC50 (pIC50) is 5.54 at Human recombinant HDAC1 and 6.38 at human recombinant HDAC6. Besides, the “Selectivity for HDAC6, HD1/HD6” value at human recombinant HDAC6 worked out at 6.9.

On to `CC1(C)CC(=O)c2c(n(CCCCCC(=O)NO)c3c(Cl)ccc(Cl)c23)C1` [Compound 48, 6-(1,4-dichloro-7,7-dimethyl-5-oxo-5,6,7,8-tetrahydrocarbazol-9-yl)-N-hydroxyhexanamide], for which, on Human recombinant HDAC1, the pIC50 is 5.36. Further, on human recombinant HDAC6, the “Selectivity for HDAC6, HD1/HD6” value is recorded as 30.1 and the pIC50 was 6.84.

Turning to `CC1(C)CC(=O)c2c(n(Cc3ccc(C(=O)NO)cc3)c3c(Cl)ccc(Cl)c23)C1` [Compound 49, 4-((1,4-dichloro-7,7-dimethyl-5-oxo-5,6,7,8-tetrahydrocarbazol-9-yl)methyl)-N-hydroxybenzamide], the negative-log IC50 (pIC50) at Human recombinant HDAC1 is 4.87. For the same compound, on human recombinant HDAC6, the “Selectivity for HDAC6, HD1/HD6” value is given as 144.8 and the negative-log IC50 (pIC50) was 7.03.

On to `CC1(C)CC(=O)c2c(n(CCCCCCC(=O)NO)c3ccc(Br)cc23)C1` [Compound 50, 7-(6-bromo-2,2-dimethyl-4-oxo-1,2,3,4-tetrahydrocarbazol-9-yl)-N-hydroxyheptanamide], for which the negative logarithm of the IC50 (pIC50) on Human recombinant HDAC1 is 6.80; at human recombinant HDAC6, 8.05. Besides, the “Selectivity for HDAC6, HD1/HD6” value on human recombinant HDAC6 is listed as 17.7.

Regarding `CC1(C)CC(=O)c2c(n(CCCCCCC(=O)NO)c3c(Cl)cc(Cl)cc23)C1` [Compound 51, 7-(1,3-dichloro-7,7-dimethyl-5-oxo-5,6,7,8-tetrahydrocarbazol-9-yl)-N-hydroxyheptanamide], the negative-log IC50 (pIC50) on Human recombinant HDAC1 was 5.88; at human recombinant HDAC6, 6.98. Besides, the “Selectivity for HDAC6, HD1/HD6” value on human recombinant HDAC6 was determined as 12.5.

Turning to `CC1(C)CC(=O)c2c(n(CCCCCCC(=O)NO)c3c(Br)cccc23)C1` [Compound 52, 7-(1-bromo-7,7-dimethyl-5-oxo-5,6,7,8-tetrahydrocarbazol-9-yl)-N-hydroxyheptanamide], the negative-log IC50 (pIC50) at Human recombinant HDAC1 is 6.18. Moreover, at human recombinant HDAC6, the “Selectivity for HDAC6, HD1/HD6” value is on record as 27.7 and the pIC50 was 7.62.

As to `CC1(C)CC(=O)c2c(n(Cc3ccc(C(=O)NO)cc3)c3cccc(Br)c23)C1` [Compound 53, 4-((5-bromo-2,2-dimethyl-4-oxo-1,2,3,4-tetrahydrocarbazol-9-yl)methyl)-N-hydroxybenzamide], the pIC50 was 5.24 at Human recombinant HDAC1 and 7.19 at human recombinant HDAC6. Further, at human recombinant HDAC6, the “Selectivity for HDAC6, HD1/HD6” value is 88.7.

Take `CC1(C)CC(=O)c2c(n(Cc3ccc(C(=O)NO)cc3)c3cc(Br)ccc23)C1` [Compound 54, 4-((7-bromo-2,2-dimethyl-4-oxo-1,2,3,4-tetrahydrocarbazol-9-yl)methyl)-N-hydroxybenzamide]: the negative-log IC50 (pIC50) at Human recombinant HDAC1 was 5.83; at human recombinant HDAC6, 7.23. The “Selectivity for HDAC6, HD1/HD6” value on human recombinant HDAC6 worked out at 24.7.

Turning to `CC1(C)CC(=O)c2c(n(CCCCCCC(=O)NO)c3ccc(F)cc23)C1` [Compound 56, 7-(6-fluoro-2,2-dimethyl-4-oxo-1,2,3,4-tetrahydrocarbazol-9-yl)-N-hydroxyheptanamide], the pIC50 on Human recombinant HDAC1 is 6.62. On human recombinant HDAC6, the “Selectivity for HDAC6, HD1/HD6” value is on record as 58.5 and the negative logarithm of the IC50 (pIC50) is 8.38.

For the compound `CC1(C)CC(=O)c2c(n(Cc3ccc(C(=O)NO)cc3)c3ccc(F)cc23)C1` [Compound 57, 4-((6-fluoro-2,2-dimethyl-4-oxo-1,2,3,4-tetrahydrocarbazol-9-yl)methyl)-N-hydroxybenzamide], on Human recombinant HDAC1, the negative logarithm of the IC50 (pIC50) is 5.42. For the same compound, at human recombinant HDAC6, the “Selectivity for HDAC6, HD1/HD6” value came to 168.3 and the pIC50 was 7.65.

As for `CC1(C)CC(=O)C2c3c(F)cccc3N(CCCCCC(=O)NO)C2C1` (stereo not drawn) [Compound 60, 6-(5-fluoro-2,2-dimethyl-4-oxo-2,3,4,4a-tetrahydro-1H-carbazol-9(9aH)-yl)-N-hydroxyhexanamide], the negative-log IC50 (pIC50) was 5.04 on Human recombinant HDAC1 and 7.14 at human recombinant HDAC6. For the same compound, the “Selectivity for HDAC6, HD1/HD6” value at human recombinant HDAC6 came to 127.4.

For `CC1(C)CC(=O)c2c(n(Cc3ccc(C(=O)NO)cc3)c3cc(F)c(F)cc23)C1` [Compound 71, 4-((6,7-difluoro-2,2-dimethyl-4-oxo-1,2,3,4-tetrahydrocarbazol-9-yl)methyl)-N-hydroxybenzamide], the negative logarithm of the IC50 (pIC50) at Human recombinant HDAC1 was 5.30; at human recombinant HDAC6 it was 6.87. Besides, the “Selectivity for HDAC6, HD1/HD6” value on human recombinant HDAC6 is given as 37.

Take `CC1(C)CC(=O)c2c(n(CCCCCC(=O)NO)c3cc(F)c(F)cc23)C1` [Compound 72, 6-(6,7-difluoro-2,2-dimethyl-4-oxo-1,2,3,4-tetrahydrocarbazol-9-yl)-N-hydroxyhexanamide]: the negative-log IC50 (pIC50) on Human recombinant HDAC1 was 5.22. In addition, on human recombinant HDAC6, the “Selectivity for HDAC6, HD1/HD6” value amounted to 28.2 and the pIC50 was 6.67.

Take `CC1(C)CC(=O)c2c(n(Cc3ccc(C(=O)NO)cc3)c3ccc(F)c(F)c23)C1` [Compound 73, 4-((5,6-difluoro-2,2-dimethyl-4-oxo-1,2,3,4-tetrahydrocarbazol-9-yl)methyl)-N-hydroxybenzamide]: on Human recombinant HDAC1, the negative logarithm of the IC50 (pIC50) is 5.41. For the same compound, on human recombinant HDAC6, the “Selectivity for HDAC6, HD1/HD6” value is 52.1 and the pIC50 was 7.12.
